# According to US20260355199A1, “COMPOSITIONS AND METHODS FOR TREATING OR PREVENTING NONALCOHOLIC STEATOHEPATITIS (NASH), ANOREXIA, DEPRESSION, ENDOMETRIOSIS, AND OTHER DISEASES OR DISORDERS” (priority 2022, published 2026):
# Entries after “also recorded” stand apart in the source; their conditions may differ.
# Columns and labels:
# TET3 [1] = experiment: TET3 protein stability (cycloheximide time course) in GT1-7 cells; assay type: cell-based; conditions: 10 μM, with cycloheximide; mouse neuronal cells
# Description: For Bobcat339 treatment (FIG. 15A and FIG. 15B), GT1-7 cells grown in 24-well plates at 2×10^5 cells/well were incubated with vehicle or Bobcat339 at a final concentration of 10 μM for 6 h, followed by RNA and protein extractions. For TET3 protein stability assay (FIG. 15B), GT1-7 cells in 24-well plates at 2×10^5 cells/well were incubated with vehicle or Bobcat339 at a final concentration of 10 μM for 3 hours, followed by addition of cycloheximide (CHX, Cell Signaling, 2112) at a final concentration of […] in the presence of 10 μM of Bobcat339. Proteins were harvested at 0, 1, 2, and 3 hours after addition of CHX. For TET3 expression restoration experiments (FIG. 15C and FIG. 15D), GT1-7 or SH-SY5Y cells seeded in 24-well plates at 2×10^5 cells/well were infected with Ad-GFP or Ad-TET3 at 4000 gc/cell. Following 16 h of infection, vehicle or Bobcat339 were added at a final concentration of 10 μM. Protein and RNA were isolated 48 h later and analyzed.
# TET3 [2] = experiment: TET3 protein in THP-1 cells; assay type: cell-based, human; conditions: THP-1, 10 μM, 24 h
# Description: Bobcat339 Treatment of Cultured Cells Bobcat339 powder (Sigma-Aldrich, SML2611) was freshly dissolved in DMSO at a concentration of 5 mM and filtered through a 0.22 micron. Cells grown at a density of 80-90% were incubated in growth media with vehicle (DMSO) or Bobcat339 at a final concentration of 10 μM for 24 h, followed by RNA and protein extraction.
# Cells were homogenized in situ using a pipette tip in 2×SDS-sample buffer with 10% β-mercaptoethanol at RT followed by heating at 100 °C for 5 min with occasional vortexing. The samples were loaded onto a 4-15% gradient SDS gel (Bio-rad, 456-8086) (10 μL/well) and transferred to nitrocellulose membranes, followed by Western blot analysis. The antibodies used were anti-TET3 (diluted at 1:1000, GeneTex, GTX121453 for human; diluted at 1:1000, Active Motif, 61395 for mouse), anti-TET2 (diluted at 1:1000, Proteintech, 21207-1-AP for human/mouse), anti-TGF-β1 (diluted at 1:1000, Abcam, ab215715 for human), anti-Lin28A (diluted at 1:1000, Cell Signaling, 3978S), and HRP-conjugated anti-GAPDH (dilution 1:5000; Proteintech, HRP-60004). The secondary antibody was HRP-linked Anti-rabbit IgG (dilution 1:10,000; Rockland, 611-1322).
compound,measurement,setting,value
"Nc1nc(=O)n(-c2cccc(-c3ccccc3)c2)cc1Cl [Bobcat339, 4-Amino-1-[1,1′-biphenyl]-3-yl-5-chloro-2(1H)-pyrimidinone]",TET3 protein stability,TET3 [1],induced protein degradation of TET3; also recorded: less stable
same,TET3 protein level,TET3 [2],a decrease in TET3 at the protein level
